PMC10683023, “Targeting Glial Cells by Organic Anion-Transporting Polypeptide 1C1 (OATP1C1)-Utilizing L-Thyroxine-Derived Prodrugs” (Journal of Medicinal Chemistry, 2023)

How the values were obtained:
[1] = Enzymatic bioconversion in mouse liver S9 fraction; assay type: in vitro ADME; conditions: after 5 h incubation, 100 μM prodrug, 37 °C, mean ± SD, n = 3
Experimental: (§1) The rates of bioactivation of the prodrugs 1–8 in mouse and human liver S9 fractions, as well as in mouse primary astrocyte–microglia homogenate, were determined at +37 °C. The incubation mixtures were prepared by mixing liver S9 subcellular fraction or brain cell homogenate (final protein concentration 1.0 mg/mL) with isotonic Tris–HCl buffer (pH 7.4) and 10 mM prodrug stock solution in DMSO (the initial concentration of prodrugs was 100 μM and the DMSO concentration was […]). The mixture was incubated for 5 h, and the samples ([…]) were withdrawn at appropriate intervals. The enzymatic reaction was terminated by the addition of ice-cold acetonitrile ([…]), and the samples were centrifuged for 5 min at 12 000 rpm at room temperature and kept on ice until the supernatants were analyzed by the HPLC method described below. In blank reactions, the S9 fractions were replaced with the same volume of buffer. The pseudo-first-order half-lives (t1/2) for the rates of bioconversion of the prodrugs were calculated from the slope of the linear portion of the plotted logarithm of the remaining prodrug concentration versus time. The rates of bioactivation of prodrugs 1–8 in human plasma and mouse serum were determined at 37 °C as above by adding 10 mM stock solution of the prodrug to plasma/serum in a ratio of 1:10 and analyzed similarly to the samples from S9 fractions.
(§2) The amount of prodrug 1–8 was determined by the HPLC system, which consisted of an Agilent 1100 binary pump (Agilent Technologies Inc., Wilmington, DE), an 1100 micro vacuum degasser, an HP 1050 Autosampler, and an HP 1050 variable wavelength detector, operated at 230–240 nm. The chromatographic separations were achieved on an Agilent Zorbax SB-C18 analytical column (4.4 mm × 150 mm, 5 μm) (Agilent Technologies Inc., Wilmington, DE) by using isocratic elution of water containing 0.1% formic acid (pH ca. 3.0) and acetonitrile containing 0.1% formic acid with ratios of 50:50, 30:70, 40:60, 50:50, 50:50, 40:60, 40:60, and 30:70 (v/v), respectively, for prodrug 1–8. […] The lower limit of quantification for prodrugs 1–8 was 0.20 μM. These HPLC methods were also accurate, precise, and selective over the range of 0.5–20 μM.

[2] = Enzymatic bioconversion in human liver S9 fraction; assay type: in vitro ADME; conditions: after 5 h incubation, 100 μM prodrug, 37 °C, mean ± SD, n = 3
Experimental: as §1, §2

[3] = Enzymatic bioconversion in mouse serum; assay type: in vitro ADME; conditions: after 5 h incubation, 37 °C, mean ± SD, n = 3
Experimental: as §1, §2

[4] = Enzymatic bioconversion in human plasma; assay type: in vitro ADME; conditions: after 5 h incubation, 37 °C, mean ± SD, n = 3
Experimental: as §1, §2

[5] = Enzymatic bioconversion in mouse primary astrocyte–microglia homogenate; assay type: in vitro ADME; conditions: after 5 h incubation, 100 μM prodrug, 37 °C, mean ± SD, n = 3
Experimental: as §1, §2

[6] = test system: human U-87MG glioma cells; test: Concentration-dependent cellular uptake into human U-87MG glioma cells; assay type: cell-based; conditions: 5–400 μM, 30 min, 37 °C
Experimental: U-87MG (ATCC, HTB-14, unknown origin) was purchased from Lonza (Basel, Switzerland). The cells were cultured in standard conditions (37 °C, 5% CO2) using Dulbecco’s modified Eagle’s medium (DMEM) supplemented with L-glutamine (2.0 mM), heat-inactivated fetal bovine serum (FBS) (10%), penicillin (50 U/mL), and streptomycin (50 μg/mL). U-87MG cells (passages 8–25) were seeded at a density of 1 × 10^5 cells/well onto 24-well plates and used for the uptake experiments 1 day after seeding. All of the studies were carried out as three biological replicates from the same cell passage.
(§3) After removal of the culture medium, U-87MG human glioma cells and mouse primary astrocytes were carefully washed with prewarmed Hank’s balanced salt solution (HBSS) containing 125.0 mM NaCl (or choline chloride in Na^+ free conditions), 4.8 mM KCl, 1.2 mM MgSO4, 1.2 mM KH2PO4, 1.3 mM CaCl2, 5.6 mM glucose, and 25.0 mM 4-(2-hydroxyethyl)piperazine-1-ethanesulfonic acid (HEPES) with the pH adjusted to either 7.4 or pH 8.5 with 1 M NaOH (or KOH in sodium-free conditions). In the experiments at lower pH (4.5–6.5), 25.0 mM HEPES was replaced by 2-(N-morpholino) ethanesulfonic acid (MES), and the pH was adjusted to 4.5, 5.5, and 6.5 by 1.0 M NaOH. Preincubation was done with 500 μL of prewarmed HBSS at 37 °C for 10 min before adding the substrate for the uptake experiments. The functionality of OATP1C1 in human glioma U-87MG cells was studied with a known substrate (L-thyroxine, T4) and of oatp1a4, 1a5, and 1a6 in mouse primary astrocytes with [6,7-^3H(N)]-estrone-3-sulfate (ES) by incubating the uptake solution (250 μL in HBSS) consisting of 5–400 μM of the substrate at 37 °C for 30 min. After incubation, the uptake was stopped by adding 500 μL of ice-cold HBSS, and the cells were washed two times with ice-cold HBSS (2 × 500 μL). The cells were then lysed with 500 μL of 0.1 M NaOH (60 min), the lysate was neutralized, and the protein was precipitated with acidic acetonitrile (ACN with 4.8% formic acid). The supernatants were analyzed by the high-performance liquid chromatography (HPLC) methods described below (T4) or by using a liquid scintillation counter (MicroBeta2 counter, PerkinElmer, Waltham, MA) (ES). The concentrations of T4 and ES were calculated from the spiked standard curve and normalized with the protein concentrations. The protein concentrations on each plate were determined as a mean of three samples by Bio-Rad Protein Assay, based on the Bradford dye-binding method, using bovine serum albumin (BSA) as a standard protein and measuring the absorbance (595 nm) by a multiplate reader (EnVision, PerkinElmer, Inc., Waltham, MA). The OATP-mediated uptake was confirmed by changing the pH of the uptake buffer in the absence of sodium ions, and in the case of OATP1C1 in human U-87MG cells, the uptake of T4 (100 μM) was studied in the presence of competing OATP1C1-ligands, diclofenac and flufenamic acid (100 μM), and in the case of oatp1a4/1a5/1a6 in mouse primary astrocytes, the uptake of ES (100 μM) was studied in the presence of competing OATO1A2-ligand, naringin (100 μM).
Cellular uptake of prodrugs 1–8 was studied as described for L-thyroxine above by adding compounds at a concentration of 5–400 μM in prewarmed HBSS buffer (250 μL) on the cell layer and incubating at 37 °C for 30 min (uptake was linear with all compounds up to 30 min). Subsequently, the cells were washed three times with ice-cold HBSS and lysed with 500 μL of 0.1 M NaOH (60 min). The lysate was neutralized; the proteins were precipitated with acidic ACN (containing 4.8% formic acid), and the supernatants were analyzed by the (HPLC) methods described below. The concentrations of each prodrug normalized to protein concentration were calculated from the standard curve prepared by spiking known concentrations of compounds into ACN-precipitated cell lysate. […]

mouse primary astrocytes = test: Concentration-dependent cellular uptake into mouse primary astrocytes; assay type: cell-based; conditions: 5–400 μM
Experimental: The mouse primary astrocytes were isolated from neonatal pups (P0-2) of wild-type mice (C57BL/6JOlaHsd) as previously described, in compliance with the European Commission Directive 2010/63/EU and approved by the Institutional Animal Care and Use Committee of the University of Eastern Finland (Animal Usage Plan numbers: EKS-006-2019).[37] Neonatal pups were decapitated, and their brains were collected in an ice-cold HBSS buffer. After tissue dissociation and washing, cells were plated on poly-L-lysine-coated flasks and cultured in DMEM supplemented with FBS, L-glutamine, and penicillin/streptomycin (50 μg/mL) for 24 h. Debris and dead cells were removed by DPBS rinsing. After 7 days, microglial cells were removed, and the remaining astrocytic monolayer was collected by trypsinization using 0.05% trypsin-ethylenediaminetetraacetic acid (EDTA) (Gibco), pelleted, and stored at −80 °C for subsequent analysis. For the cell uptake experiments, the astrocytes were seeded on 24-well plates with a density of 10^4 cells/well 3 days before the experiments.
as §3
Cellular uptake of prodrugs 1–8 was studied as described for L-thyroxine above by adding compounds at a concentration of 5–400 μM in prewarmed HBSS buffer (250 μL) on the cell layer and incubating at 37 °C for 30 min (uptake was linear with all compounds up to 30 min). Subsequently, the cells were washed three times with ice-cold HBSS and lysed with 500 μL of 0.1 M NaOH (60 min). […]

| Enzymatic stability, remaining percentage, mouse liver S9 [1] [%] | Enzymatic stability, remaining percentage, human liver S9 [2] [%] | Enzymatic stability, remaining percentage, mouse serum [3] [%] | Enzymatic stability, remaining percentage, human plasma [4] [%] | Enzymatic stability, remaining percentage, mouse brain cell homogenate [5] [%] | Km (mouse primary astrocytes; 30 min, 37 °C) [µM] | Compound | Km [6] [µM] | Km ([6]; listed as PD1) [µM] | Vmax, ES uptake into mouse primary astrocytes (mouse primary astrocytes; Figure 2B) [pmol/min/mg] | Vmax, cellular uptake, U-87MG [6] [nmol/min/mg] | Vmax, cellular uptake, astrocytes (mouse primary astrocytes; 30 min, 37 °C) [nmol/min/mg] |
| --- | --- | --- | --- | --- | --- | --- | --- | --- | --- | --- | --- |
| 74.30 ± 7.50 | 78.13 ± 2.17 | 94.32 ± 1.27 | 92.01 ± 5.02 | 85.76 ± 2.74 | – | CC(C(=O)Oc1c(I)cc(C[C@H](N)C(=O)O)cc1I)c1cccc(C(=O)c2ccccc2)c1 (mixture of isomers) [Prodrug 1, (2S)-2-Amino-3-(4-((2-(3-benzoylphenyl)propanoyl)oxy)-3,5-diiodophenyl)propanoic acid] | 174 | ~174 | – | – | – |
| – | – | – | – | – | 703 ± 227 | C[C@]12CC[C@@H]3c4ccc(OS(=O)(=O)O)cc4CC[C@H]3[C@@H]1CCC2=O [ES, [6,7-^3H(N)]-estrone-3-sulfate, reference compound] | – | – | 0.22 ± 0.05 | – | – |
| – | – | – | – | – | 1250 ± 230 | N[C@@H](Cc1cc(I)c(Oc2cc(I)c(O)c(I)c2)c(I)c1)C(=O)O [L-Thyroxine T4, L-thyroxine] | 111 ± 32 | – | – | 8.86 ± 1.33 | 9.7 ± 6.1 |
